Laboratory results from patent US20100190724A1, “USE OF MELANOCYTE-STIMULATING HORMONE RELEASE-INHIBITING FACTOR AS A THERAPEUTIC AGENT IN THE TREATMENT OF PSEUDOMONAS AERUGINOSA INFECTION” (priority 2007, published 2010).
Where a SMILES comes first, the peptide text is derived from it.

Experiments:
CEM-SS cells = experiment: Cytotoxicity (MTS cell viability) in HIV-1 experiments; settings: peptide 10 micrograms per ml, MTS
HIV-1IIB = experiment: HIV-1 antiviral assay (CPE reduction, MTS) in CEM-SS cells; assay type: cell-based; settings: peptide 10 micrograms per ml, 6 days post-infection
MRC-5 cells = experiment: Cytotoxicity testing in MRC-5 cells (CellTiter 96); assay type: cell-based, human; settings: 6 days incubation
Method: (§1) The following day, peptide was added and tested in duplicates.

TNF alpha = TNF alpha production assay in LPS-stimulated macrophages (ELISA); assay type: cell-based, human; settings: PBMC-derived macrophages, peptide 10 micrograms per ml, lipopolysaccharide 200 ng/ml, overnight
Excerpt: Not stimulated macrophages served as negative background control.

HCMV strain AD169 = experiment: HCMV plaque reduction assay in MRC-5 cells; assay type: cell-based, human cytomegalovirus; settings: peptide 10 micrograms per ml, 7-10 days
Excerpt: Ganciclovir was used as positive control.

RAW 264.7 cells = experiment: Phagocytosis assay (Fluorescein-labeled Escherichia coli, flow cytometry); assay type: cell-based, mouse; settings: peptide 10 micrograms per ml, 30 min preincubation, 60 min ingestion
A549 cells [1] = experiment: Apoptosis prevention assay (C2 ceramide, Annexin-5); assay type: cell-based, human; settings: 30 min pretreatment with peptide 10 micrograms per ml, then C2 ceramide
IL-5 = experiment: Th1/Th2 cytokine profiling assay: IL-5; assay type: cell-based, Balb/c mice; settings: Ovalbumin-restimulated spleen cells; peptide 10 micrograms per ml; 72 hours
[2] = Cytotoxicity (MTS cell viability) in HIV-1 experiments; settings: human, CEM-SS cells
A549 cells [3] = experiment: Propidium iodide cell cycle assay; assay type: cell-based, human; settings: peptide 10 micrograms per ml, 24 hours, FACS
[4] = tested on: Primary Human endothelial cells (HUVEC); experiment: Endothelial cell migration assay; assay type: cell-based; settings: peptide 10 micrograms per ml, 22 hours
IFNγ = experiment: Th1/Th2 cytokine profiling assay: IFNγ; assay type: cell-based, Balb/c mice; settings: Ovalbumin-restimulated spleen cells; peptide 10 micrograms per ml; 72 hours
TNF-a = experiment: Th1/Th2 cytokine profiling assay: TNF-a; assay type: cell-based, Balb/c mice; settings: Ovalbumin-restimulated spleen cells; peptide 10 micrograms per ml; 72 hours
[5] = tested on: hepatitis B virus (HBV) ayw strain; experiment: HBV replication assay in HepG2-2.2.15 cells (TaqMan PCR of secreted HBV DNA); assay type: cell-based; settings: peptide 10 micrograms per ml, six days, HBV DNA by TaqMan PCR
Method: HepG2-2.2.15 is a stable cell line containing the hepatitis B virus (HBV) ayw strain genome (ATCC Cat. No. CRL-11997). Antiviral compounds blocking any late step of viral replication such as transcription, translation, pregenome encapsidation, reverse transcription, particle assembly and release can be identified and characterized using this cell line.
HepG2-2.2.15 cells were plated in 96-well microtiter plates. After 16-24 hours the confluent monolayer of HepG2-2.2.15 cells was washed and the medium was replaced with complete medium containing test peptide—10 micrograms per ml—in duplicate. […] Three days later the culture medium was replaced with fresh medium containing the peptide. Six days following the initial administration of the peptide, the cell culture supernatants was collected, treated with pronase and DNAse and then used in a real-time quantitative TaqMan PCR assay. The PCR-amplified HBV DNA was detected in real-time by monitoring increases in fluorescence signals that result from the exonucleolytic degradation of a quenched fluorescence probe molecule that hybridizes to the amplified HBV DNA. For each PCR amplification, a standard curve was simultaneously generated using dilutions of purified HBV DNA. Antiviral activity was calculated from the reduction in HBV DNA levels (% virus control). […]

Pseudomonas aeruginosa = assay type: cell-based; settings: 5 micrograms per ml
IL-2 = experiment: Th1/Th2 cytokine profiling assay: IL-2; assay type: cell-based, Balb/c mice; settings: Ovalbumin-restimulated spleen cells; peptide 10 micrograms per ml; 72 hours
[6] = tested on: Human Peripheral Blood Mononuclear Cells (PBMC); experiment: T cell proliferation assay (PHA, 3H-thymidine); assay type: cell-based; settings: peptide 10 micrograms per ml, 3H-thymidine incorporation
[7] = tested on: Human Peripheral Blood Mononuclear Cells (PBMC); experiment: B cell proliferation assay (SAC plus Interleukin-2, 3H-thymidine); assay type: cell-based; settings: peptide 10 micrograms per ml, 3H-thymidine incorporation
MRSA = assay type: cell-based, Staphylococcus Aureus; settings: 5 micrograms per ml
[8] = Cytotoxicity testing in MRC-5 cells (CellTiter 96); assay type: cell-based, human; settings: human, 6 days incubation, read-out: % Cell viability
Method: as §1

Streptococcus pneumoniae = assay type: cell-based; settings: 5 micrograms per ml
HUVEC = experiment: Endothelial tube formation assay; assay type: cell-based, human; settings: peptide 10 micrograms per ml, 20 hours
Excerpt: Positive control was vehicle only.

IL-4 = experiment: Th1/Th2 cytokine profiling assay: IL-4; assay type: cell-based, Balb/c mice; settings: Ovalbumin-restimulated spleen cells; peptide 10 micrograms per ml; 72 hours
A549 cells [9] = experiment: Apoptosis induction assay (Annexin-5); assay type: cell-based, human; settings: peptide 10 micrograms per ml, 24 hours
[10] = Cytotoxicity (dye uptake cell viability) in HBV assay; assay type: cell-based; settings: human, HepG2-2.2.15 cells, peptide 10 micrograms per ml
Method: HepG2-2.2.15 cells were plated in 96-well microtiter plates. After 16-24 hours the confluent monolayer of HepG2-2.2.15 cells was washed and the medium was replaced with complete medium containing test peptide—10 micrograms per ml—in duplicate. Lamivudine (3TC) was used as the positive control, while media alone was added to the cells as a negative control (virus control). Three days later the culture medium was replaced with fresh medium containing the peptide. Six days following the initial administration of the peptide, the cell culture supernatants was collected, treated with pronase and DNAse and then used in a real-time quantitative TaqMan PCR assay. The PCR-amplified HBV DNA was detected in real-time by monitoring increases in fluorescence signals that result from the exonucleolytic degradation of a quenched fluorescence probe molecule that hybridizes to the amplified HBV DNA. For each PCR amplification, a standard curve was simultaneously generated using dilutions of purified HBV DNA. Antiviral activity was calculated from the reduction in HBV DNA levels (% virus control). A novel dye uptake assay was then employed to measure cell viability, which is used to calculate toxicity (% cell control).

Cc1cn([C@H]2C[C@H](N=[N+]=[N-])[C@@H](CO)O2)c(=O)[nH]c1=O [AZT, reference compound]
% Cell viability (CEM-SS cells): 97% | % CPE reduction in HIV-1 infected CEM-SS cells (HIV-1IIB): 99%

Nc1nc(O)c2ncn(COC(CO)CO)c2n1 [Ganciclovir, reference compound]
% Cell viability (MRC-5 cells): 100%

CC(C)C[C@H](NC(=O)[C@@H]1CCCN1)C(=O)NCC(N)=O [MSHRIF, Pro-Leu-Gly-NH2] (H-Pro-Leu-Gly-NH2)
% of LPS induction (TNF alpha): 88.2% | % plaque reduction (HCMV strain AD169): 0.0% | % of control phagocytosis (RAW 264.7 cells): 145.7% | % prevention of ceramide induced apoptosis (A549 cells [1]): 0.0% | IL-5 spleen cells; TH2 response (% of control) (IL-5): 56.7 % of control | viability at 10 micrograms per ml [2]: 98.4% | Cell cycle analysis G0/G1 (A549 cells [3]): 56.9 | Cell cycle analysis G2/M (A549 cells [3]): 11.7 | Cell cycle analysis S (A549 cells [3]): 31.4 | % inhibition of migration [4]: −8% | IFNγ spleen cells; TH1 response (% of control) (IFNγ): 88.0 % of control | TNF-a spleen cells; TH1 response (% of control) (TNF-a): 81.4 % of control | % inhibition of HBV replication in HEP G2 cells [5]: 10.9% | % inhibition (Pseudomonas aeruginosa): 100.0% | IL-2 spleen cells (% of control) (IL-2): 0.0 % of control | % of PHA induced control [6]: 80.8% | % of SAC/IL2 induced control [7]: 79.2% | % inhibition (MRSA): 0.0% | viability at 144 h [8]: 100% | % inhibition (Streptococcus pneumoniae): 0.0% | % inhibition of tube formation (HUVEC): 9.0% | IL-4 spleen cells; TH2 response (% of control) (IL-4): 0.0 % of control | % CPE reduction in HIV-1 infected CEM-SS cells (HIV-1IIB): 0.0% | % of induction (A549 cells [9]): 0.9% | viability at 144 h, 10 micrograms per ml [10]: 100%
